US11992561B2 (priority 2020, dated 2024)

Tests used:
[1] = Clinical study: plasma concentrations and pharmacokinetics after (S)-ketamine OTF; conditions: for Tmax: calculated using a PK model (NONMEM); for plasma level of the metabolite following administration of an OTF as compared to intravenous administration of 20 mg (S)-ketamine: FIGS. 3-8
[2] = Clinical study: safety, side effects, taste, psychedelic effects (Bowdle, Bond and Lader questionnaires)

Structure (SMILES): CNC1(c2ccccc2Cl)CCCCC1=O (stereo not shown) [ketamine]
- plasma levels of ketamine, intravenous administration versus administration of an OTF ([1]; FIGS. 9-11): higher for intravenous administration

Structure (SMILES): N[C@]1(c2ccccc2Cl)CCCCC1=O [(S)-Norketamine]
- Tmax ([1]; 50 mg (S)-Ketamine OTF): 1.02 h
- Tmax ([1]; 100 mg (S)-Ketamine OTF): 1.3 h
- Cmax plasma concentration ([1]; All data, 2 × 50 mg (S)-ketamine OTF (formulation 15)): 330 ng/mL
- Cmax plasma concentration ([1]; Buccally, 2 × 50 mg (S)-ketamine OTF, n=5): 450 ng/mL
- plasma level of the metabolite following administration of an OTF as compared to intravenous administration of 20 mg (S)-ketamine [1]: higher

Structure (SMILES): CNC1(c2ccccc2Cl)CCCCC1=O (racemic) [(S)-ketamine, (S)-(±)-2-(2-chlorophenyl)-2-(methylamino)cyclohexan-1-one]
- Dizziness (number of adverse events) ([2]; 20 mg (S)-ketamine IV): 4
- Drowsiness (number of adverse events) ([2]; 20 mg (S)-ketamine IV): 3
- Dry eyes (number of adverse events) ([2]; 20 mg (S)-ketamine IV): 1
- Headache (number of adverse events) ([2]; 20 mg (S)-ketamine IV): 3
- High blood pressure (SBP > 180 mm Hg) (number of adverse events) ([2]; 20 mg (S)-ketamine IV): 2
- Nausea (number of adverse events) ([2]; 20 mg (S)-ketamine IV): 2
- Sweating (number of adverse events) ([2]; 20 mg (S)-ketamine IV): 1
- Total (number of adverse events) ([2]; 20 mg (S)-ketamine IV): 17
- Whistling noise in the ear (number of adverse events) ([2]; 20 mg (S)-ketamine IV): 1
- Blurred vision (number of adverse events) ([2]; 50 mg (S)-ketamine as OTF): 1
- Bradykinesia (number of adverse events) ([2]; 50 mg (S)-ketamine as OTF): 1
- Dizziness (number of adverse events) ([2]; 50 mg (S)-ketamine as OTF): 1
- Feeling of drunkenness (number of adverse events) ([2]; 50 mg (S)-ketamine as OTF): 2
- Headache (number of adverse events) ([2]; 50 mg (S)-ketamine as OTF): 1
- Nausea (number of adverse events) ([2]; 50 mg (S)-ketamine as OTF): 1
- Total (number of adverse events) ([2]; 50 mg (S)-ketamine as OTF): 7
- Bradykinesia (number of adverse events) ([2]; 100 mg (S)-ketamine as OTF): 1
- Dizziness (number of adverse events) ([2]; 100 mg (S)-ketamine as OTF): 3
- Headache (number of adverse events) ([2]; 100 mg (S)-ketamine as OTF): 2
- Nausea (number of adverse events) ([2]; 100 mg (S)-ketamine as OTF): 1
- Numbness of the tongue (number of adverse events) ([2]; 100 mg (S)-ketamine as OTF): 2
- Total (number of adverse events) ([2]; 100 mg (S)-ketamine as OTF): 9

Structure (SMILES): N[C@]1(c2ccccc2Cl)CCC[C@H](O)C1=O [(S)-Hydroxynorketamine]
- Tmax ([1]; 50 mg (S)-Ketamine OTF): 1.35 h
- Tmax ([1]; 100 mg (S)-Ketamine OTF): 1.82 h
- Cmax plasma concentration ([1]; All data, 50 mg (S)-ketamine OTF (formulation 15)): 94 ng/mL
- Cmax plasma concentration ([1]; Buccally, 50 mg (S)-ketamine OTF, n=5): 81 ng/mL
- plasma level of the metabolite following administration of an OTF as compared to intravenous administration of 20 mg (S)-ketamine [1]: higher
- Cmax plasma concentration ([1]; Sublingually, 50 mg (S)-ketamine OTF, n=15): 98 ng/mL
